Assay results published in the supplement of paper PMC10307832.

Key:
Assay in all cases: relative viability (nuclei count vs DMSO), 5 days (fraction); higher = more cells survive
[1] = compound: CCC1=CN=CN=C1N2CCN(CC2)CC3=NC4=C(N3)C=C(C=C4)C(F)(F)F
In short: (§1)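 Lung cancer cell lines in 1536-well plates were kept overnight at 37 °C, then pinned with five library-drug doses (not always all listed) spaced by √10 on vehicle-anchored plates. After 5 days without medium change, cells were fixed, permeabilised and Hoechst-stained in one step, imaged at 4×, and nuclei were counted with MetaXpress. Viability is treated-well nuclei divided by vehicle-well nuclei, taken as the median over plates. Plates passed only with control CV below 25% and at least one doubling.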

[2] = compound: CCn1c(-c2nonc2N)nc2cnc(Oc3cccc(NC(=O)c4ccc(OCCN5CCOCC5)cc4)c3)cc21
In short: as §1

Mirin = compound: N=C1NC(=O)/C(=C/c2ccc(O)cc2)S1 [Mirin]
In short: as §1

Mirin + Olaparib = compound: N=C1NC(=O)/C(=C/c2ccc(O)cc2)S1 [Mirin] + O=C(c1cc(Cc2n[nH]c(=O)c3ccccc23)ccc1F)N1CCN(C(=O)C2CC2)CC1 [Olaparib] (partner 8 µM)
In short: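 Lung cancer cell lines, seeded in 1536-well plates, were treated the following day by pin tool with a single drug or with five library-drug doses (not always all listed) in √10 steps on top of a fixed anchor-drug dose. Cells were fixed and nuclei stained in one step after 5 days, and nuclei were counted. Relative viability is the nuclei count for treated wells divided by that for vehicle wells, reported as medians of duplicate plates.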

UMC-11
relative viability ([1]; 0.04 µM): 0.925
relative viability ([1]; 0.1265 µM): 0.948
relative viability ([1]; 0.4 µM): 0.933
relative viability ([1]; 1.265 µM): 0.838
relative viability ([1]; 4 µM): 0.888
relative viability ([2]; 0.04 µM): 0.965
relative viability ([2]; 0.1265 µM): 0.85
relative viability ([2]; 0.4 µM): 0.481
relative viability ([2]; 1.265 µM): 0.275
relative viability ([2]; 4 µM): 0.236
relative viability (Mirin; 0.25 µM): 1.01
relative viability (Mirin; 0.7906 µM): 0.657
relative viability (Mirin; 2.5 µM): 1.02
relative viability (Mirin; 7.906 µM): 0.803
relative viability (Mirin; 25 µM): 0.608
relative viability (Mirin + Olaparib; first compound 0.25 µM): 0.382
relative viability (Mirin + Olaparib; first compound 0.7906 µM): 0.316
relative viability (Mirin + Olaparib; first compound 2.5 µM): 0.332
relative viability (Mirin + Olaparib; first compound 7.906 µM): 0.279
relative viability (Mirin + Olaparib; first compound 25 µM): 0.331
